The source of these data is patent publication US20250082625A1, “NOVEL THERAPY” (priority 2016, published 2025).

“Also recorded” adds a separate entry of the source.

The test system of one assay is HTB-9 cells. As to the kind of experiment: Pre-treatment of HTB-9 bladder epithelial cells before CY17 infection (confocal imaging, ELISA). It is filed as cell-based, human. As for the experimental part: Cells were grown on 8-well chamber slides (6×10^4 cells/well, Thermo Fischer Scientific) or in 6-well plates (6×10^5 cells/well) for 16 hours in media supplemented with 10% FBS. Media were removed, and cells were washed with PBS before adding medium without FBS. Cells were infected with bacteria diluted to appropriate concentration in PBS and incubated for one or four hours at 37° C. with 5% CO2.
The two cell types were first infected with increasing concentrations of the acute cystitis strain E. coli CY-17 (10^2-10^4 cfu/ml) for 1 to 4 hours. NK1R and SP expression was used as a read out of the cellular response. […] A concentration of 10^4 cfu/ml of CY-17 and four hours of infection was chosen for further studies. Under these conditions, there was little cytotoxicity. To further characterize the neuropeptide response to bladder infection, the in vitro analysis was extended to include GALR2, OrxR2 and TAS2R43. Confocal microscopy was used in this instance. Infected cells were fixed (3.7% formaldehyde, 15 min), permeabilized (0.25% triton X-100, 5% FBS, 10 min), blocked (5% FBS, 1 h at RT), incubated overnight with primary antibodies in 5% FBS: Anti-NK1R (1:100, SC-15323, Santa Cruz), anti-SP, (1:200, ORB11399, Biorbyt), anti-orexin receptor 2, (1:200, AB10470, Abcam), anti-TAS2R43, (1:200, AB65513, Abcam), and anti-GALR2 antibodies (1:100, AB136264, Abcam). Appropriate fluorescently labeled secondary antibodies were used (Alexa Fluor® 488 goat anti-rabbit IgG, A-11034; Life Technologies, (1 hour at Room Temperature). After nuclear staining (DRAQ5, 1:1000, Abcam) slides were mounted (Fluoromount, Sigma-Aldrich), imaged by laser scanning confocal microscopy (MSM510 META confocal microscope, Carl Zeiss) and quantified by ImageJ software 1.46r (NIH).
HTB-9 cells and differentiated SH-SY5Y cells were pre-treated with SR140333, or IL-1RA Anakinra (500 ng/ml) for 30 minutes before infection with CY17 (10^4 cfu/ml, four hours), or treatment with exogenous recombinant SP (R&D System) or IL-1β (Abnova) (20 ng/ml, four hours). After infection, cells were infected with CY17 and the NK1R, SP and IL-1β response was quantified by confocal imaging. IL-1β- and SP secretion was quantified by ELISA, in culture supernatants. In nerve- and bladder epithelial cells, SR140333 inhibited the SP/NK1R response to infection, consistent with an autocrine activation loop involving SP/NK1R as shown by confocal imaging (FIG. 10a). […] SP activated IL-1β expression and secretion in bladder epithelial cells but had no effect on IL-1β on nerve cells. (*=P<0.05, **=P<0.01, ***=P<0.001, Two-tailed t-test for confocal imaging data and Mann-Whitney U-test for ELISAs.
Furthermore, to examine if the effects of NK1R inhibition can be generalized, we used two additional NK1R antagonists (CP99994 and L703.303). HTB-9 cells and differentiated SH-SY5Y cells were pre-treated with SR140333, CP99994, L-703.606 or IL-1RA Anakinra (500 ng/ml) for 30 minutes before infection with CY17 (10^4 cfu/ml, four hours), or treatment with exogenous recombinant SP (R&D System) or IL-1β (Abnova) (20 ng/ml, four hours).

In the next assay the test system is NK1R. As to the kind of experiment: Neuropeptide response in bladders of CY-17 infected Nlrp3^−/− mice treated with NK1R antagonist (immunohistochemistry, qRT-PCR). It is filed as in vivo. The settings on record: for Nk1r expression (qRT-PCR) / Ppt-1 expression (qRT-PCR): 1 mg/kg i.p. From the text: Mice were bred and housed in the specific pathogen-free MIG animal facilities (Lund, Sweden) with free access to food and water. Female C57BL/6 mice or Il1b^−/−, Nlrp3^−/−, Asc^−/− mice were used for experiments at 9-15 weeks of age.
Tissues were embedded in O.C.T. compound (VWR) and 7-μm-thick fresh cryosections were mounted on positively charged microscope slides (Superfrost/Plus; Thermo Fisher Scientific) Sections were permeabilized (0.25% Triton X-100, 5% FBS), blocked (5% FBS) and stained: rabbit anti-NK1R (1:50, SC-15323, SantaCruz), rabbit anti-substance p (1:100, ORB11399, Biorbyt), rabbit anti-orexin receptor 2 (1:300, AB104701, Abcam), rabbit anti-GALR2 (1:50, AB136264, Abcam) or rabbit anti-TAS2R43 (1:100, AB65513, Abcam). Antibodies were appropriately labeled using goat anti-rabbit secondary antibodies conjugated to Alexa 488 (1:200 in 0.025% Triton X-100, 5% FBS) for 1 h in RT before nuclear counterstaining using Draq5 (1:1000, Abcam). Sections were imaged by laser scanning confocal microscopy (MSM510 META confocal microscope, Carl Zeiss) or by fluorescence microscopy (AX60, Olympus Optical).
Complementary DNA was reverse-transcribed from 0.2-1 μg of mice total RNA using SuperScript™ III First-Strand Synthesis System for RT-PCR (Invitrogen), and quantified in real time using primer pairs against Mus musculus Nk1r, Ppt-1^37 and Galr2 and QuantiTect® SYBR® Green PCR kits (Qiagen) on a Rotor Gene Q (Qiagen).
qRT-PCR reactions were run in technical duplicates and gene expression was analyzed based on ΔΔCT comparison to Mus musculus GAPDH.
The severity of acute cystitis after 24 hours or seven days was examined and neuropeptide expression and disease severity quantified by immunohistochemistry and qRT-PCR of whole bladder RNA extracts, using primers specific for NK1R, Ppt-1 or Galr2 as described above.

Where [1] appears, read: pre-treated before CY17 infection.
The mark [2] stands for this setting: Nlrp3^−/− mice, CY-17 infection, SR140333 i.p. 1 mg/kg, vs untreated infected mice, 1 mg/kg.

For `CC(C)Oc1cccc(CC(=O)N2CCC[C@](CC[N+]34CCC(c5ccccc5)(CC3)CC4)(c3ccc(Cl)c(Cl)c3)C2)c1.[Cl-]` [SR140333, 1-[2-[(3S)-3-(3,4-Dichlorophenyl)-1-[2-[3-(1-methylethoxy)phenyl]acetyl]-3-piperidinyl]ethyl]-4-phenyl-1-azoniabicyclo[2.2.2]octane chloride], the “SP/NK1R response to infection (confocal imaging)” value in the assay with HTB-9 cells (pre-treated 30 minutes before CY17 (10^4 cfu/ml, four hours)) was “inhibited”. Further, in the assay with HTB-9 cells (setting [1]), the “IL-1β secretion (ELISA, culture supernatants)” value is “inhibited; also recorded: decreased”. Besides, in the assay on HTB-9 cells (setting [1]), the “SP secretion (ELISA, culture supernatants)” value is “decreased”. In addition, the “mucosal NK1R response to infection (NK1R staining)” value with NK1R (setting [2]) is given as “reduced; also recorded: Inhibition”. Also, the “mucosal SP response to infection (SP staining)” value with NK1R (setting [2]) was “reduced; also recorded: Attenuated”. Moreover, the “Galr2 expression (qRT-PCR)” value in the assay on NK1R (either treatment (prophylactic or post-infection), p=0.19 and p=0.63) is “no significant effect; also recorded: not altered”. The GALR2 staining entry in the assay on NK1R (infected mice, n=4 mice per condition) was “does not effect”. Further, the “Nk1r expression (qRT-PCR)” value is on record as “reduced” with NK1R (post-infection treatment, p<0.01) and “reduced” with NK1R (prophylactic treatment (pretreatment), p<0.05). The “Ppt-1 expression (qRT-PCR)” value in the assay on NK1R (post-infection treatment, p<0.01, 1 mg/kg) is recorded as “affected; also recorded: Inhibition”; in the assay on NK1R (prophylaxis (pretreatment), p=0.06), “less efficient”.
